Laboratory results taken from patent US4143133A, “Claudogenic-interceptive nonapeptides” (American Home Products Corporation, priority 1977, dated 1979).

Legend:
[1] = system: LH secretion; conditions: cited from earlier work
[2] = cited from earlier work
[3] = system: Proestrous female Sprague-Dawley rats; test: Ovulation induction in Nembutal-treated proestrous rats; assay type: in vivo, rat; conditions: for Dose giving ovulation inducing activity in 100 percent of the rats: via the jugular vein, Nembutal 50 mg/kg i.p.
Experimental: The ovulation-induction properties of the nonapeptides of this invention was determined as follows:
Proestrous female Sprague-Dawley rats were injected intraperitoneally with a hypnotic dose of Nembutal® (50 mg/kg) at 1:30 P.M. Between 1:40 and 1:50 P.M. the rats received the test material via the jugular vein. The following morning the animals were sacraficed and the fallopian tubes examined for ova under a dissecting microscope. […] Thus, in its ovulation induction, the preferred compound of this invention, [D-2-(cyclohexyl)Gly^6, Pro-NHC2 H5^9 ]LHRH is about 10 times as active as [D-Ala^6, Pro-NHC2 H5^9 ]LH-RH and 30 times as active as LH-RH.

[4] = system: Proestrous female Sprague-Dawley rats; test: as above; assay type: in vivo; conditions: P.O.; rat
[5] = system: Mature, female, Sprague-Dawley rats; test: Anti-gravidity (claudogenic/interceptive) test in mated rats; assay type: in vivo; conditions: rat; for Claudogen (D 1-7), Minimal Effective Dose (100% effect): days 1-7 of pregnancy; for Interceptive (D 7-12), Minimal Effective Dose (100% effect): days 7-12 of pregnancy

## D-Ala^6, (N^α -Me)Leu^7 LH-RH
[1]; Ling et al. 1975
  Potency in stimulating the secretion of LH, percent of LH-RH's potency: 560%

## des-Gly^10 -Pro-NHC2 H5 -LH-RH
[2]; Fujino et al. 1972
  Activity relative to LH-RH: three to five times as active as LH-RH

## D-Ala^6 -LRH
[2]; Monahan et al. 1973
  Potency relative to LH-RH: more potent than LH-RH

## CCNC(=O)[C@@H]1CCCN1C(=O)[C@H](CCCNC(=N)N)NC(=O)[C@H](CC(C)C)NC(=O)[C@H](NC(=O)[C@H](Cc1ccc(O)cc1)NC(=O)[C@H](CO)NC(=O)[C@H](Cc1c[nH]c2ccccc12)NC(=O)[C@H](Cc1c[nH]cn1)NC(=O)[C@@H]1CCC(=O)N1)C1CCCCC1 [Example 5, L-pyroglutamyl-L-histidyl-L-tryptophyl-L-seryl-L-tyrosyl-D-2-(cyclohexyl)glycyl-L-leucyl-L-arginyl-L-prolinethylamide]
[3]; I.V., rat
  Ovulation induction, Minimal Effective Dose (100% effect): 0.10 μ/rat
[3]; rat
  Ovulation induction activity relative to LH-RH: ~30 times
  Ovulation induction activity relative to [D-Ala^6, Pro-NHC2 H5^9 ]LH-RH: about 10 times
[3]
  Dose giving ovulation inducing activity in 100 percent of the rats: 0.1 μg per rat
[4]
  Ovulation induction, Minimal Effective Dose (100% effect): ~ 10 μ/rat
[5]; P.O.
  Claudogen (D 1-7), Minimal Effective Dose (100% effect): 200 μ/rat
  Interceptive (D 7-12), Minimal Effective Dose (100% effect): > 1000 μ/rat
[5]; S.C.
  Claudogen (D 1-7), Minimal Effective Dose (100% effect): ~ 1.0 μ/rat
  Interceptive (D 7-12), Minimal Effective Dose (100% effect): ~ 10 μ/rat

## LH-RH (QHWSYGLRPG; Gonadoliberin-1; UniProt P01148 24-33, looked up) [native hormone used as comparison in ovulation induction, reference compound]
[3]
  Dose giving ovulation inducing activity in 100 percent of the rats: about 3 μg per rat

## [D-Ala^6, des-Gly-NH2^10, Proethylamide]LH-RH [reference compound]
[3]
  Dose giving ovulation inducing activity in 100 percent of the rats: about 1 μg per rat
[1]; Coy et al. 1974
  Potency in stimulating LH secretion relative to D-Ala^6 -LH-RH: about twice

## CCNC(=O)[C@@H]1CCCN1C(=O)[C@H](CCCNC(=N)N)NC(=O)[C@H](CC(C)C)N(C)C(=O)[C@H](NC(=O)[C@H](Cc1ccc(O)cc1)NC(=O)[C@H](CO)NC(=O)[C@H](Cc1c[nH]c2ccccc12)NC(=O)[C@H](Cc1c[nH]cn1)NC(=O)[C@@H]1CCC(=O)N1)C1CCCCC1 [Example 6]
[3]; i.v., rat
  Ovulation induction, Minimal Effective Dose (100% effect): 1.0 μg/rat
[3]
  Dose giving ovulation inducing activity in 100 percent of the rats: 1.0 μg per rat
[4]
  Ovulation induction, Minimal Effective Dose (100% effect): > 10 μg/rat
[5]; P.O.
  Claudogen (D 1-7), Minimal Effective Dose (100% effect): > 1000 μg/rat
  Interceptive (D 7-12), Minimal Effective Dose (100% effect): > 1000 μg/rat
[5]; S.C.
  Claudogen (D 1-7), Minimal Effective Dose (100% effect): 10 μg/rat
  Interceptive (D 7-12), Minimal Effective Dose (100% effect): ~ 10 μg/rat
